Series [1] concerns patients with advanced solid tumours. The experiment in a line: Phase I trial: dose-limiting toxicities in cycle 1 and maximum tolerated dose. It counts as in vivo, human.
Description: Tipifarnib was supplied by Johnson & Johnson Pharmaceutical Research and Development as 100 mg tablets. […] Tipifarnib was administered orally twice daily, with intervals of 12 h. Tipifarnib was given on days 1–7 of each 21-day cycle. […] To minimise nephrotoxicity, a pre-and posthydration schedule was implemented on day 1. […] At least three patients were treated at each dose level. If DLT occurred in a patient during cycle 1, three additional patients were enrolled in that cohort. MTD was defined at which 2 or more out of 6 patients (2⩾6) experienced DLT. […] These toxicities were only considered DLT if they occurred during the first cycle of treatment. In the case of grade 3–4 haematological toxicities, the dose of gemcitabine was adjusted in the next cycle based on nadir blood cell counts. Dose adjustments were relative to the starting dose of gemcitabine received in the previous cycle of therapy. If the nadir granulocyte count was >500 μl^−1 and the nadir platelet count >50 000 μl^−1, 100% of the planned gemcitabine dose was administered. […] The administration of tipifarnib was discontinued when haematological DLT occurred. After recovery to at least grade 1, tipifarnib was reinstituted at the same dose level in conjunction with a dose modification of gemcitabine. […]
Series [2] has as its system plasma proteins. The conditions noted are these: cited from earlier work.
Series [3] deals with patients with advanced solid tumours. The series is described as follows: Phase I trial: treatment emergent grade 3 or 4 haematological and nonhaematological toxicities (NCI-CTC v2.0), all cycles. As to conditions: human, in vivo.
Description: Tipifarnib was supplied by Johnson & Johnson Pharmaceutical Research and Development as 100 mg tablets. […] Tipifarnib was administered orally twice daily, with intervals of 12 h. Tipifarnib was given on days 1–7 of each 21-day cycle. […] To minimise nephrotoxicity, a pre-and posthydration schedule was implemented on day 1. […] At least three patients were treated at each dose level. If DLT occurred in a patient during cycle 1, three additional patients were enrolled in that cohort. MTD was defined at which 2 or more out of 6 patients (2⩾6) experienced DLT. […] These toxicities were only considered DLT if they occurred during the first cycle of treatment. In the case of grade 3–4 haematological toxicities, the dose of gemcitabine was adjusted in the next cycle based on nadir blood cell counts. Dose adjustments were relative to the starting dose of gemcitabine received in the previous cycle of therapy. If the nadir granulocyte count was >500 μl^−1 and the nadir platelet count >50 000 μl^−1, 100% of the planned gemcitabine dose was administered. […] The administration of tipifarnib was discontinued when haematological DLT occurred. After recovery to at least grade 1, tipifarnib was reinstituted at the same dose level in conjunction with a dose modification of gemcitabine. If a patient continued to experience haematological DLT after one dose modification of gemcitabine, the dose of tipifarnib was decreased with 100 mg b.i.d. If at any time the dose of tipifarnib was to be reduced to <100 mg b.i.d. or if retreatment needed to be delayed >2 weeks after the scheduled restarting of a cycle, the patient went off-study. […] If grade 4 nonhaematological toxicities occurred, patients went off-study. No dose adjustments were made for transaminase elevation unless associated with clinical signs or symptoms. […] If at any time the dose of tipifarnib was to be reduced to <100 mg b.i.d. or if retreatment needed to be delayed >2 weeks after the scheduled restarting of a cycle, the patient went off-study.
Complete patient history, physical examination, haematology, chemistry, urinalysis and electrocardiogram were performed at baseline and before each cycle of treatment. Physical examination, haematology and chemistry were also evaluated on days 8 and 15 of each cycle. Audiometry was performed at baseline and was repeated if clinically indicated. Indicator lesions were measured before start of treatment and every two cycles, as a basis for the assessment of activity of the treatment. All toxicities observed were graded according to the Common Toxicity Criteria ([NCI-CTC, Version 2.0, 1998]).
The nature of series [4]: clinical. The conditions noted are these: for AUC(0-t) / Cmax: 750 mg. As for the experimental part: (§1) In cycle 2, tipifarnib pharmacokinetics was then determined on day 2. For gemcitabine, 2 ml blood samples were taken at 0, 15, 30, 35, 45, 60, 90 min and at 2, 2.5, 24, 32 and 48 h after the start of the 30 min infusion during cycle 1 and at 0, 15, 30, 35, 45, 60, 90 min during cycle 2. Both gemcitabine and its metabolite 2′, 2′ -difluoro-2′-deoxy-uridine (dFdU) were measured in plasma. Of each blood sample, 1 ml was added to 10 μl of tetrahydrouridine (10 mg ml^−1), after which it was centrifuged for 5 min at 4°C and 1500 g. Subsequently, the plasma layer was stored at −20°C until analysis. Additionally, 15 ml blood samples were taken at 0, 1.5, 4 and 24 h after the start of the gemcitabine infusion for the determination of the triphosphate metabolite of gemcitabine (dFdCTP) in WBC ([Sparidans et al, 2002]). Isolation of WBC was performed using a Ficoll density gradient (Pharmacia, Sweden) as described previously ([Heinemann et al, 1998]). All gemcitabine levels were measured using a validated high-performance liquid chromatography (HPLC) method, analogous to the method of [Freeman et al (1995)]. […] Blood samples were immediately centrifuged for 5 min at 4°C and 1500 g. Unbound platinum was obtained by ultrafiltration using the MPS-1 system equipped with 3 kDa YMT membranes (Amicon Division, Danvers, MA, USA). The resulting plasma ultrafiltrate and total plasma were immediately stored at −20°C until analysis by atomic absorption spectrometry (AAS) ([Van Warmerdam et al, 1995]). […] For tipifarnib, 5 ml blood samples were drawn at 0, 1, 2, 3, 5, 8 and 12 h after the morning dose. Immediately after collection, the blood samples were centrifuged for 5 min at 4°C at 1500 g. Separated plasma was stored at −20°C for subsequent drug analysis by a validated HPLC method with UV detection ([Zujewski et al, 2000]).
(§2) The following pharmacokinetic parameters were determined using noncompartmental analysis with WinNonLin software (version 4.1, Pharsight Corporation, Mountain View, CA, USA): the maximum plasma concentration (Cmax), time to maximum plasma concentration (tmax), the elimination half-life (t1/2), the area under the plasma concentration–time curve from 0 to 48 h (AUC0–48) of gemcitabine and dFdU and the AUC0–23 for total and unbound (free) platinum. […] In addition, the AUC0–24 of dFdCTP and the AUA0–23 (area under the adduct curve) ([Schellens et al, 1996]) of Pt-DNA adducts were calculated in WBC. For tipifarnib, Cmax, tmax and AUC0-12 were determined.
(§3) The primary pharmacokinetic parameters of interest for the statistical analyses were Cmax and AUC. Only data from patients who completed the pharmacokinetic blood sampling during the first and second cycles and had no dose reduction were included in the analyses. […] A significance level of 0.05 was used for all analyses. The statistical analyses were performed using the SAS statistical software program (version 6.12; SAS Institute, Inc., Cary, NC, USA).

Series [5] concerns cancer patients. The conditions noted are these: cited from earlier work; for MTD: ref Adjei et al, 2003b.
A short description of series [6]: Plasma pharmacokinetics of tipifarnib (HPLC-UV) as monotherapy or with gemcitabine/cisplatin. It counts as in vivo, human. The conditions noted are these: single 200 mg oral dose. As for the experimental part:
as §1, §2, §3

The conditions of series [7]: cited from earlier work.
The nature of series [8]: dFdCTP in white blood cells with or without tipifarnib. Type of series: in vivo, human. The conditions noted are these: mononuclear blood cell, adjusted to 750 mg m^−2 gemcitabine.
[9] abbreviates: combination with tipifarnib given for 14 days.

By Cmax is commonly meant the highest concentration seen after dosing.

Like-named read-outs stand apart in the source and are kept apart here. Marks after values point to notes of the source that are not given here.

As for `Nc1ccn([C@@H]2O[C@H](CO)[C@@H](O)C2(F)F)c(=O)n1` [gemcitabine], the “Maximum tolerated dose (MTD)” value in series [1] (i.v., in the combination of tipifarnib, gemcitabine (days 1 and 8) and cisplatin (day 1), 21-day cycle (dose level 3)) was found to be 1000 mg m^−2. Moreover, in series [2] (ref Shipley et al, 1992), the “Binding to plasma proteins” value is on record as “negligible”. In series [3], the “Patients with a dose reduction owing to haematological toxicities” value came out at 16% and the “Patients with a dose reduction owing to nonhaematological toxicities” value was found to be 13%. In series [4] (human, in vivo), the AUC(0-t) was 6710 ng·h/mL and the Cmax is 12500 ng/mL. Besides, the Median tmax in series [4] (human, in vivo, iv) is 0.50 h. For the same compound, the “Pharmacokinetic (drug–drug) interaction” value in series [4] (in vivo) is recorded as “no drug–drug interaction”. The MTD in series [5] (setting [9]) is on record as 1000 mg m^−2.
On to `O=c1ccn([C@@H]2O[C@H](CO)[C@@H](O)C2(F)F)c(=O)[nH]1` [dFdU, 2′, 2′ -difluoro-2′-deoxy-uridine], for which, in series [4] (human, in vivo), the AUC(0-t) was 237000 ng·h/mL and the maximum concentration (Cmax) came out at 25600 ng/mL. Also, the “Pharmacokinetic (drug–drug) interaction” value in series [4] (in vivo) is given as “significant difference”.
Regarding `N.N.[Cl][Pt][Cl]` [cisplatin], in series [5] (setting [9]), the MTD was 75 mg m^−2.
Regarding `Cn1cncc1[C@@](N)(c1ccc(Cl)cc1)c1ccc2c(c1)c(-c1cccc(Cl)c1)cc(=O)n2C` [tipifarnib], the AUC(0-t) in series [6] (human, tipifarnib as monotherapy (cycle 2 day 2), n=20, read-out: AUC0-12, mean (s.d.)) was determined as 2630 ng·h/mL. Also, in series [6] (human, tipifarnib as monotherapy (cycle 2 day 2), n=20, read-out: Cmax, mean (s.d.)), the Cmax stood at 499 ng/mL. Further, the Median tmax in series [6] (tipifarnib as monotherapy (cycle 2 day 2), n=20) worked out at 3.0 h; in series [6] (with gemcitabine 750–1000 mg m^−2 and cisplatin 75–100 mg m^−2 (cycle 1 day 1), n=23) it was 2.1 h. In series [6] (with gemcitabine 750–1000 mg m^−2 and cisplatin 75–100 mg m^−2 (cycle 1 day 1), n=22), the “AUC0-12, mean (s.d.)” value is 2971 (2089) ^c h ng ml^−1. Moreover, the “Maximum tolerated dose (MTD)” value in series [1] (oral, days 1–7 of each 21-day cycle, in combination with gemcitabine and cisplatin (dose level 3)) is on record as 200 mg b.i.d. Besides, the “Bound to plasma proteins” value in series [2] (ref Janssen Research Foundation, 2003) was 99%. Also, the “Preclinical interaction of the combination” value in series [7] (tipifarnib combined with cisplatin, ref Skrzat et al, 1999) is reported as “additive”; in series [7] (tipifarnib combined with gemcitabine, ref Janssen Research Foundation, 2003), “synergy”. Further, the “Patients with a dose reduction owing to haematological toxicities” value in series [3] is reported as 10%. Also, the “Patients with a dose reduction owing to nonhaematological toxicities” value in series [3] was 3%. Further, the Recommended dose in series [5] (continuous tipifarnib with gemcitabine 1000 mg m^−2 on days 1, 8 and 15 every 4 weeks, ref Patnaik et al, 2003) is recorded as 200 mg b.i.d. Moreover, the “Dose up to which the regimen was safe” value in series [5] (monotherapy, 7 consecutive days, cancer patients, ref Zujewski et al, 2000) was “at least 300 mg b.i.d”. In series [5] (tipifarnib for 14 days with gemcitabine days 1 and 8 and cisplatin day 1), the MTD is recorded as 300 mg b.i.d.
For the compound `Nc1ccn([C@@H]2O[C@H](COP(=O)(O)OP(=O)(O)OP(=O)(O)O)[C@@H](O)C2(F)F)c(=O)n1` [dFdCTP], the “Pharmacokinetic (drug–drug) interaction” value in series [4] (cycle 1 (with tipifarnib) vs cycle 2 (without tipifarnib), Cmax and AUC, ANOVA) is “no drug–drug interaction”. Also, the “AUC0–24, mean (s.d.)” value in series [8] (Gem/cis without tipifarnib) is listed as 18.3 (40.9) ^i h nanomol mg protein^−1; in series [8] (Gem/cis+tipifarnib 100–300 mg) it was 14.7 (22.9) ^j h nanomol mg protein^−1.
